Measurements as given in patent publication US6765010B2, “Compositions and methods for enhancing analgesic potency of tramadol and attenuating its adverse side effects” (Pain Therapeutics, Inc., priority 1999, dated 2004).

What was measured:
[1] = tested on: human subjects/patients with pain following dental surgery; test: Dental surgery pain study: adverse events
[2] = tested on: human subjects/patients with pain following dental surgery; test: Dental surgery pain study: global evaluations; format: in vivo; settings: ITT
Excerpt: For this randomized, double-blind, active-controlled and placebo-controlled, parallel-group study, human subjects were randomized into one of the following five treatment groups:
A positive control (T, Group 4) was used to determine the sensitivity of the clinical end points. A negative control (placebo, Group 5) was used to establish the frequency and magnitude of changes in clinical end points that may occur in the absence of an active treatment. A single oral dose of study medication was administered when the subject experienced moderate to severe pain following the surgical extraction of three or four third molars. At least one of the molars was required to be mandibular bony impacted.
At the end of eight hours, or at the termination of hourly observations if sooner than eight hours, a global assessment was made by the subject and the observer in response to the question, “How do you rate the pain relief?” with response choices of excellent, very good, good, fair or poor. Assessment of adverse events continued for at least one hour following rescue medication. Subjects not completing at least the Hour 1 observation period were considered not evaluable for efficacy and were replaced.

[3] = tested on: human subjects/patients with pain following dental surgery; test: Dental surgery pain study: categorical pain intensity difference (PID, SPID); format: in vivo; settings: LOCF; for Hourly Pain Intensity Difference (PID) score, Mean / Hourly Pain Intensity Difference (PID) score, Median: ITT subjects, PID as numerical variable
[4] = ITT, counted once per subject (Table 15)
[5] = Severity = Moderate, ITT subjects

COc1cccc([C@@]2(O)CCCC[C@@H]2CN(C)C)c1.Cl (racemic) [tramadol, (1RS,2RS)-2[(dimethylamino)-methyl]-1-(3-methoxyphenyl)-cyclohexanol HCL]
Adverse events: Number (%) with Events ([1]; ITT, Severity = Severe): 3 (6.0%) n (%)
Adverse events: Number of Events ([1]; ITT, Severity = Severe): 3 events
Gastrointestinal Disorders, frequency (percentage) ([1]; ITT, Severity = Severe): 2 (4.0%) n (%)
Gastrointestinal Disorders, occurrence ([1]; ITT, Severity = Severe): 2 events
Headache Nos, frequency (percentage) ([1]; ITT, Severity = Severe): 1 (2.0%) n (%)
Headache Nos, occurrence ([1]; ITT, Severity = Severe): 1 events
Nausea, frequency (percentage) ([1]; ITT, Severity = Severe): 2 (4.0%) n (%)
Nausea, occurrence ([1]; ITT, Severity = Severe): 2 events
Nervous System Disorders, frequency (percentage) ([1]; ITT, Severity = Severe): 1 (2.0%) n (%)
Nervous System Disorders, occurrence ([1]; ITT, Severity = Severe): 1 events
Vomiting Nos, frequency (percentage) ([1]; ITT, Severity = Severe): 1 (2.0%) n (%)
Vomiting Nos, occurrence ([1]; ITT, Severity = Severe): 1 events
Adverse events: Number (%) with Events ([1]; ITT, all severities): 40 (80%) n (%)
Adverse events: Number of Events ([1]; ITT, all severities): 134 events
Dizziness (Exc Vertigo), frequency (percentage) ([1]; ITT, all severities): 15 (30.0%) n (%)
Dizziness (Exc Vertigo), occurrence ([1]; ITT, all severities): 19 events
Gastrointestinal Disorders, frequency (percentage) ([1]; ITT, all severities): 20 (40.0%) n (%)
Gastrointestinal Disorders, occurrence ([1]; ITT, all severities): 40 events
Headache Nos, frequency (percentage) ([1]; ITT, all severities): 28 (56.0%) n (%)
Headache Nos, occurrence ([1]; ITT, all severities): 38 events
Nausea, frequency (percentage) ([1]; ITT, all severities): 20 (40.0%) n (%)
Nausea, occurrence ([1]; ITT, all severities): 28 events
Nervous System Disorders, frequency (percentage) ([1]; ITT, all severities): 40 (80.0%) n (%)
Nervous System Disorders, occurrence ([1]; ITT, all severities): 89 events
Pruritus Nos, frequency (percentage) ([1]; ITT, all severities): 2(4.0%) n (%)
Pruritus Nos, occurrence ([1]; ITT, all severities): 2 events
Sedation, frequency (percentage) ([1]; ITT, all severities): 28 (56.0%) n (%)
Sedation, occurrence ([1]; ITT, all severities): 32 events
Skin & Subcutaneous Tissue Disorders, frequency (percentage) ([1]; ITT, all severities): 2 (4.0%) n (%)
Skin & Subcutaneous Tissue Disorders, occurrence ([1]; ITT, all severities): 2 events
Vomiting Nos, frequency (percentage) ([1]; ITT, all severities): 10 (20.0%) n (%)
Vomiting Nos, occurrence ([1]; ITT, all severities): 12 events
Incidence of Nausea, No [1, 4]: 30 (60.0%) n (%)
Incidence of Nausea, Yes [1, 4]: 20 (40.0%) n (%)
Incidence of Vomiting Nos, No [1, 4]: 40 (80.0%) n (%)
Incidence of Vomiting Nos, Yes [1, 4]: 10 (20.0%) n (%)
Dizziness (Exc Vertigo), frequency (subjects) ([1]; Severity = Mild, ITT subjects): 12
Dizziness (Exc Vertigo), occurrence (events) ([1]; Severity = Mild, ITT subjects): 16
Dizziness (Exc Vertigo), percentage of subjects ([1]; Severity = Mild, ITT subjects): 24.0%
Gastrointestinal Disorders, frequency (subjects) ([1]; Severity = Mild, ITT subjects): 6
Gastrointestinal Disorders, occurrence (events) ([1]; Severity = Mild, ITT subjects): 15
Gastrointestinal Disorders, percentage of subjects ([1]; Severity = Mild, ITT subjects): 12.0%
Headache Nos, frequency (subjects) ([1]; Severity = Mild, ITT subjects): 17
Headache Nos, occurrence (events) ([1]; Severity = Mild, ITT subjects): 26
Headache Nos, percentage of subjects ([1]; Severity = Mild, ITT subjects): 34.0%
Nausea, frequency (subjects) ([1]; Severity = Mild, ITT subjects): 9
Nausea, occurrence (events) ([1]; Severity = Mild, ITT subjects): 14
Nausea, percentage of subjects ([1]; Severity = Mild, ITT subjects): 18.0%
Nervous System Disorders, frequency (subjects) ([1]; Severity = Mild, ITT subjects): 23
Nervous System Disorders, occurrence (events) ([1]; Severity = Mild, ITT subjects): 66
Nervous System Disorders, percentage of subjects ([1]; Severity = Mild, ITT subjects): 46.0%
Number of Events ([1]; Severity = Mild, ITT subjects): 84
Number of subjects with adverse events ([1]; Severity = Mild, ITT subjects): 15
Percentage of subjects with adverse events ([1]; Severity = Mild, ITT subjects): 30.0%
Pruritus Nos, frequency (subjects) ([1]; Severity = Mild, ITT subjects): 2
Pruritus Nos, occurrence (events) ([1]; Severity = Mild, ITT subjects): 2
Pruritus Nos, percentage of subjects ([1]; Severity = Mild, ITT subjects): 4.0%
Sedation, frequency (subjects) ([1]; Severity = Mild, ITT subjects): 21
Sedation, occurrence (events) ([1]; Severity = Mild, ITT subjects): 24
Sedation, percentage of subjects ([1]; Severity = Mild, ITT subjects): 42.0%
Skin & Subcutaneous Tissue Disorders, frequency (subjects) ([1]; Severity = Mild, ITT subjects): 2
Skin & Subcutaneous Tissue Disorders, occurrence (events) ([1]; Severity = Mild, ITT subjects): 2
Skin & Subcutaneous Tissue Disorders, percentage of subjects ([1]; Severity = Mild, ITT subjects): 4.0%
Vomiting Nos, frequency (subjects) ([1]; Severity = Mild, ITT subjects): 3
Vomiting Nos, occurrence (events) ([1]; Severity = Mild, ITT subjects): 4
Vomiting Nos, percentage of subjects ([1]; Severity = Mild, ITT subjects): 6.0%
Dizziness (Exc Vertigo), frequency (subjects) [1, 5]: 3
Dizziness (Exc Vertigo), occurrence (events) [1, 5]: 3
Dizziness (Exc Vertigo), percentage of subjects [1, 5]: 6.0%
Gastrointestinal Disorders, frequency (subjects) [1, 5]: 12
Gastrointestinal Disorders, occurrence (events) [1, 5]: 23
Gastrointestinal Disorders, percentage of subjects [1, 5]: 24.0%
Headache Nos, frequency (subjects) [1, 5]: 10
Headache Nos, occurrence (events) [1, 5]: 11
Headache Nos, percentage of subjects [1, 5]: 20.0%
Nausea, frequency (subjects) [1, 5]: 10
Nausea, occurrence (events) [1, 5]: 13
Nausea, percentage of subjects [1, 5]: 20.0%
Nervous System Disorders, frequency (subjects) [1, 5]: 16
Nervous System Disorders, occurrence (events) [1, 5]: 22
Nervous System Disorders, percentage of subjects [1, 5]: 32.0%
Number of Events [1, 5]: 47
Number of subjects with adverse events [1, 5]: 22
Percentage of subjects with adverse events [1, 5]: 44.0%
Sedation, frequency (subjects) [1, 5]: 7
Sedation, occurrence (events) [1, 5]: 8
Sedation, percentage of subjects [1, 5]: 14.0%
Vomiting Nos, frequency (subjects) [1, 5]: 9
Vomiting Nos, occurrence (events) [1, 5]: 10
Vomiting Nos, percentage of subjects [1, 5]: 18.0%
Global Evaluation, Observer Evaluation: Excellent [2]: 2 (4.0%) n (%)
Global Evaluation, Observer Evaluation: Fair [2]: 13 (26.0%) n (%)
Global Evaluation, Observer Evaluation: Good [2]: 5 (10.0%) n (%)
Global Evaluation, Observer Evaluation: Poor [2]: 25 (50.0%) n (%)
Global Evaluation, Observer Evaluation: Very Good [2]: 5 (10.0%) n (%)
Global Evaluation, Subject Evaluation: Excellent [2]: 1 (2.0%) n (%)
Global Evaluation, Subject Evaluation: Fair [2]: 13 (26.0%) n (%)
Global Evaluation, Subject Evaluation: Good [2]: 4 (8.0%) n (%)
Global Evaluation, Subject Evaluation: Poor [2]: 26 (52.0%) n (%)
Global Evaluation, Subject Evaluation: Very Good [2]: 6 (12.0%) n (%)
Hourly Pain Intensity Difference (PID) score, Mean ([3]; Hour 0.5): −0.22
Hourly Pain Intensity Difference (PID) score, Median ([3]; Hour 0.5): 0
Hourly Pain Intensity Difference (PID) score, Mean ([3]; Hour 1): −0.30
Hourly Pain Intensity Difference (PID) score, Median ([3]; Hour 1): 0
Hourly Pain Intensity Difference (PID) score, Mean ([3]; Hour 2): −0.06
Hourly Pain Intensity Difference (PID) score, Median ([3]; Hour 2): 0
Hourly Pain Intensity Difference (PID) score, Mean ([3]; Hour 3): −0.06
Hourly Pain Intensity Difference (PID) score, Median ([3]; Hour 3): 0
Hourly Pain Intensity Difference (PID) score, Mean ([3]; Hour 4): 0.06
Hourly Pain Intensity Difference (PID) score, Median ([3]; Hour 4): 0
Hourly Pain Intensity Difference (PID) score, Mean ([3]; Hour 5): 0.00
Hourly Pain Intensity Difference (PID) score, Median ([3]; Hour 5): 0
Hourly Pain Intensity Difference (PID) score, Mean ([3]; Hour 6): 0.04
Hourly Pain Intensity Difference (PID) score, Median ([3]; Hour 6): 0
Hourly Pain Intensity Difference (PID) score, Mean ([3]; Hour 7): −0.02
Hourly Pain Intensity Difference (PID) score, Median ([3]; Hour 7): 0
Hourly Pain Intensity Difference (PID) score, Mean ([3]; Hour 8): 0.02
Hourly Pain Intensity Difference (PID) score, Median ([3]; Hour 8): 0
SPID up to 4 Hours, Mean ([3]; ITT, single oral dose): −0.58
SPID up to 4 Hours, Median ([3]; ITT, single oral dose): 0
SPID up to 6 Hours, Mean ([3]; ITT, single oral dose): −0.54
SPID up to 6 Hours, Median ([3]; ITT, single oral dose): 0
SPID up to 8 Hours, Mean ([3]; ITT, single oral dose): −0.54
SPID up to 8 Hours, Median ([3]; ITT, single oral dose): 0
